Test results published in patent US7244462B2, “Amino acid derivative and sweetening agent” (Ajinomoto Co., Inc., priority 2003, dated 2007).
Values joined by “and” are separate entries in the source; they are usually repeats but may differ in a detail not shown here. Identical values can stand only once. Like-named read-outs stand apart in the source and are kept apart here. Peptide text beside a SMILES is read from it.

How the values were obtained:
[1] = Sensory test: degree of sweetness compared with sucrose (sugar) solution; details: for Degree of sweetness (multiplying power of sweetness): compared with a 4 to 5% sucrose solution
Excerpt: The derivative of the invention, i.e., the compound and the form of the salt thereof of the invention was proven to have strong sweetness with a quality of sweetness that is similar to sugar, as a result of a sensory test. For example, the degree of sweetness of 2-amino-4,5-dihydroxy-4-(3-indolylmethyl)pentanoic acid (mixture of the (2S,4S) isomer and (2R,4R) isomer at a ratio of 1:1) was about 1250 times as high as that of sugar, and the degree of sweetness of (2R,4R)-2-amino-4-hydroxy-4-ethylcarbamoyl-4-(3-indolylmethyl)butyric acid was about 1600 times as high as that of sugar. […] Structure and results of the sensory test on several synthesized amino acid derivatives (represented by the following formula (1)) are presented in Table 1.

[2] = Stability (half life) in aqueous acidic solution, citrate buffer pH 3, 70° C.; format: physicochemical; details: citrate buffer solution of pH=3, at 70° C.
[3] = (2S,4S) isomer derived from natural plant; literature report; cited from earlier work
[4] = compared with a 5% sugar solution

half-life [2] [h]	SMILES	Degree of sweetness (multiplying power of sweetness) [1]	Degree of sweetness [1, 4]	Degree of sweetness ([1]; sensory test)	Degree of sweetness [3]
	NC(CC(O)(CO)Cc1c[nH]c2ccccc12)C(=O)O (mixture of isomers) [Compound No. 3, (2S,4S)- and (2R,4R)-2-amino-4,5-dihydroxy-4-(3-indolylmethyl)pentanoic acid mixture]	about 1250	About 1250 times	about 1250 times as high as that of sugar	
	NC(CC(O)(CO)Cc1c[nH]c2ccccc12)C(=O)O (mixture of isomers) [Compound No. 4, (2S,4R)- and (2R,4S)-2-amino-4,5-dihydroxy-4-(3-indolylmethyl)pentanoic acid mixture]	about 750	About 750 times		
	N[C@H](C[C@H](Cc1c[nH]c2ccccc12)C(=O)O)C(=O)O [Compound No. 1, (2R,4S)-2-amino-4-(3-indolyl)methyl pentandioic acid]	about 200	About 200 times		
	Cc1ccc2c(CC(O)(C[C@H](N)C(=O)O)C(=O)O)c[nH]c2c1 (stereo partly drawn) [Compound No. 2, 4-hydroxy-4-(6-methylindole-3-ylmethyl)glutamic acid]	about 650	About 650 times		
	CC(O)(Cc1c[nH]c2ccccc12)CC(N)C(=O)O (stereo not drawn) [Compound No. 5, 2-amino-4-hydroxy-4-(3-indolylmethyl)pentanoic acid]	about 900	About 900 times		
	CCC(O)(Cc1c[nH]c2ccccc12)CC(N)C(=O)O (stereo not drawn) [Compound No. 6, 2-amino-4-hydroxy-4-(3-indolylmethyl)hexanoic acid]	about 500	About 500 times		
	CNC(=O)[C@@](O)(Cc1c[nH]c2ccccc12)C[C@@H](N)C(=O)O [Compound No. 7, (2R,4R)-2-amino-4-hydroxy-4-methylcarbamoyl-4-(3-indolylmethyl)butyric acid]	about 200	About 200 times		
~97	CCNC(=O)[C@@](O)(Cc1c[nH]c2ccccc12)C[C@@H](N)C(=O)O [Compound No. 8, (2R,4R)-2-amino-4-hydroxy-4-ethylcarbamoyl-4-(3-indolylmethyl)butyric acid]	about 1600	About 1600 times	about 1600 times as high as that of sugar	
~35	COC(=O)[C@H](Cc1ccccc1)NC(=O)[C@@H](N)CC(=O)O [aspartame, reference compound] (H-Asp-Phe-OMe)				
	N[C@@H](C[C@@](O)(Cc1c[nH]c2ccccc12)C(=O)O)C(=O)O [monatin, (2S,4S)-2-amino-4-carboxy-4-hydroxy-5-(3-indolyl)pentanoic acid]				800 times of sucrose and 1400 times of sucrose
